# Assay results taken from patent US7138361B2, “Herbicidal heterocycles” (E. I. du Pont de Nemours and Company, priority 2000, dated 2006).
# Tests used:
# Format in all cases: in vivo
# [1] = system: Surinam grass (Brachiaria decumbens); assay: Test B postemergence; settings: 13 to 15 days
# Outline: (§1)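 Pre: seeded pots sprayed, chemical in non-phytotoxic solvent/surfactant mix. Post: plants 2–18 cm, 1–4 leaf, same formulation. Greenhouse 13–15 d; visual % control vs untreated, 0–100 scale.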
# [2] = system: barnyardgrass (Echinochloa crus-galli); assay: Test B postemergence; settings: 13 to 15 days
# Outline: as §1
# [3] = system: blackgrass (Alopecurus myosuroides); assay: Test B postemergence; settings: 13 to 15 days
# Outline: as §1
# [4] = system: cocklebur (Xanthium strumarium); assay: Test B postemergence; settings: 13 to 15 days
# Outline: as §1
# corn (Zea mays) [5] = assay: Test B postemergence; settings: 13 to 15 days
# Outline: as §1
# [6] = system: crabgrass (Digitaria sanguinalis); assay: Test B postemergence; settings: 13 to 15 days
# Outline: as §1
# [7] = system: giant foxtail (Setaria faberii); assay: Test B postemergence; settings: 13 to 15 days
# Outline: as §1
# [8] = system: lambsquarters (Chenopodium album); assay: Test B postemergence; settings: 13 to 15 days
# Outline: as §1
# [9] = system: morning glory (Ipomoea hederacea); assay: Test B postemergence; settings: 13 to 15 days
# Outline: as §1
# [10] = system: pigweed (Amaranthus retroflexus); assay: Test B postemergence; settings: 13 to 15 days
# Outline: as §1
# [11] = system: velvetleaf (Abutilon theophrasti); assay: Test B postemergence; settings: 13 to 15 days
# Outline: as §1
# [12] = system: wheat (Triticum aestivum); assay: Test B postemergence; settings: 13 to 15 days
# Outline: as §1
# wild oat (Avena fatua) = assay: Test B postemergence; settings: 13 to 15 days
# Outline: as §1
# [13] = system: Surinam grass (Brachiaria decumbens); assay: Test B preemergence; settings: scale 0 to 100, 0 no effect, 100 complete control
# Outline: as §1
# [14] = system: barnyardgrass (Echinochloa crus-galli); assay: Test B preemergence; settings: scale 0 to 100, 0 no effect, 100 complete control
# Outline: as §1
# [15] = system: cocklebur (Xanthium strumarium); assay: Test B preemergence; settings: scale 0 to 100, 0 no effect, 100 complete control
# Outline: as §1
# corn (Zea mays) [16] = assay: Test B preemergence; settings: scale 0 to 100, 0 no effect, 100 complete control
# Outline: as §1
# [17] = system: crabgrass (Digitaria sanguinalis); assay: Test B preemergence; settings: scale 0 to 100, 0 no effect, 100 complete control
# Outline: as §1
# [18] = system: giant foxtail (Setaria faberii); assay: Test B preemergence; settings: scale 0 to 100, 0 no effect, 100 complete control
# Outline: as §1
# [19] = system: lambsquarters (Chenopodium album); assay: Test B preemergence; settings: scale 0 to 100, 0 no effect, 100 complete control
# Outline: as §1
# [20] = system: morning glory (Ipomoea hederacea); assay: Test B preemergence; settings: scale 0 to 100, 0 no effect, 100 complete control
# Outline: as §1
# [21] = system: pigweed (Amaranthus retroflexus); assay: Test B preemergence; settings: scale 0 to 100, 0 no effect, 100 complete control
# Outline: as §1
# rice (Oryza saliva) = assay: Test B preemergence; settings: scale 0 to 100, 0 no effect, 100 complete control
# Outline: as §1
# [22] = system: velvetleaf (Abutilon theophrasti); assay: Test B preemergence; settings: scale 0 to 100, 0 no effect, 100 complete control
# Outline: as §1
# [23] = Rate 125 g/ha, scale 0 (no effect) to 100 (complete control)
# [24] = Rate 500 g/ha, scale 0 to 100, 0 is no effect, 100 is complete control
smiles,measurement,setting,value
CC1CCc2cn(C3CCN(c4cccc(C(F)(F)F)c4)C3=O)nc21 (stereo not shown) [Compound 11],"Plant response rating, Surinam grass",[1]; [23],0
same,"Plant response rating, Surinam grass",[1]; [24],0
same,"Plant response rating, Barnyardgrass",[2]; [23],0
same,"Plant response rating, Barnyardgrass",[2]; [24],0
same,"Plant response rating, Blackgrass",[3]; [23],0
same,"Plant response rating, Blackgrass",[3]; [24],0
same,"Plant response rating, Cocklebur",[4]; [23],0
same,"Plant response rating, Cocklebur",[4]; [24],0
same,"Plant response rating, Corn",corn (Zea mays) [5]; [23],0
same,"Plant response rating, Corn",corn (Zea mays) [5]; [24],0
same,"Plant response rating, Crabgrass",[6]; [23],0
same,"Plant response rating, Crabgrass",[6]; [24],0
same,"Plant response rating, Foxtail, Giant",[7]; [23],0
same,"Plant response rating, Foxtail, Giant",[7]; [24],0
same,"Plant response rating, Lambsquarters",[8]; [23],0
same,"Plant response rating, Lambsquarters",[8]; [24],0
same,"Plant response rating, Morningglory",[9]; [23],0
same,"Plant response rating, Morningglory",[9]; [24],0
same,"Plant response rating, Pigweed",[10]; [23],0
same,"Plant response rating, Pigweed",[10]; [24],0
same,"Plant response rating, Velvetleaf",[11]; [23],0
same,"Plant response rating, Velvetleaf",[11]; [24],0
same,"Plant response rating, Wheat",[12]; [23],0
same,"Plant response rating, Wheat",[12]; [24],0
same,"Plant response rating, Wild Oat",wild oat (Avena fatua); [23],0
same,"Plant response rating, Wild Oat",wild oat (Avena fatua); [24],0
same,"Plant response rating, Surinam grass","[13]; Preemergence, Rate 500 g/ha",0
same,"Plant response rating, Surinam grass","[13]; preemergence, Rate 125 g/ha",0
same,"Plant response rating, Barnyardgrass","[14]; Preemergence, Rate 500 g/ha",0
same,"Plant response rating, Barnyardgrass","[14]; preemergence, Rate 125 g/ha",0
same,"Plant response rating, Cocklebur","[15]; Preemergence, Rate 500 g/ha",0
same,"Plant response rating, Cocklebur","[15]; preemergence, Rate 125 g/ha",0
same,"Plant response rating, Corn","corn (Zea mays) [16]; Preemergence, Rate 500 g/ha",0
same,"Plant response rating, Corn","corn (Zea mays) [16]; preemergence, Rate 125 g/ha",0
same,"Plant response rating, Crabgrass","[17]; Preemergence, Rate 500 g/ha",0
same,"Plant response rating, Crabgrass","[17]; preemergence, Rate 125 g/ha",0
same,"Plant response rating, Foxtail, Giant","[18]; Preemergence, Rate 500 g/ha",0
same,"Plant response rating, Foxtail, Giant","[18]; preemergence, Rate 125 g/ha",0
same,"Plant response rating, Lambsquarters","[19]; Preemergence, Rate 500 g/ha",0
same,"Plant response rating, Lambsquarters","[19]; preemergence, Rate 125 g/ha",0
same,"Plant response rating, Morningglory","[20]; Preemergence, Rate 500 g/ha",0
same,"Plant response rating, Morningglory","[20]; preemergence, Rate 125 g/ha",0
same,"Plant response rating, Pigweed","[21]; Preemergence, Rate 500 g/ha",0
same,"Plant response rating, Pigweed","[21]; preemergence, Rate 125 g/ha",0
same,"Plant response rating, Rice","rice (Oryza saliva); Preemergence, Rate 500 g/ha",0
same,"Plant response rating, Rice","rice (Oryza saliva); preemergence, Rate 125 g/ha",0
same,"Plant response rating, Velvetleaf","[22]; Preemergence, Rate 500 g/ha",0
same,"Plant response rating, Velvetleaf","[22]; preemergence, Rate 125 g/ha",0
CC(C)(C)c1ccn(C2SCN(c3cccc(C(F)(F)F)c3)C2=O)n1 (stereo not shown) [Compound 1],"Plant response rating, Surinam grass",[1]; [23],0
same,"Plant response rating, Surinam grass",[1]; [24],0
same,"Plant response rating, Barnyardgrass",[2]; [23],0
same,"Plant response rating, Barnyardgrass",[2]; [24],50
same,"Plant response rating, Blackgrass",[3]; [23],0
same,"Plant response rating, Blackgrass",[3]; [24],0
same,"Plant response rating, Cocklebur",[4]; [23],60
same,"Plant response rating, Cocklebur",[4]; [24],80
same,"Plant response rating, Corn",corn (Zea mays) [5]; [23],0
same,"Plant response rating, Corn",corn (Zea mays) [5]; [24],60
same,"Plant response rating, Crabgrass",[6]; [23],0
same,"Plant response rating, Crabgrass",[6]; [24],40
same,"Plant response rating, Foxtail, Giant",[7]; [23],30
same,"Plant response rating, Foxtail, Giant",[7]; [24],60
same,"Plant response rating, Lambsquarters",[8]; [23],90
same,"Plant response rating, Lambsquarters",[8]; [24],100
same,"Plant response rating, Morningglory",[9]; [23],50
same,"Plant response rating, Morningglory",[9]; [24],100
same,"Plant response rating, Pigweed",[10]; [23],90
same,"Plant response rating, Pigweed",[10]; [24],100
same,"Plant response rating, Velvetleaf",[11]; [23],50
same,"Plant response rating, Velvetleaf",[11]; [24],60
same,"Plant response rating, Wheat",[12]; [23],0
same,"Plant response rating, Wheat",[12]; [24],30
same,"Plant response rating, Wild Oat",wild oat (Avena fatua); [23],0
same,"Plant response rating, Wild Oat",wild oat (Avena fatua); [24],0
same,"Plant response rating, Surinam grass","[13]; Preemergence, Rate 500 g/ha",0
same,"Plant response rating, Surinam grass","[13]; preemergence, Rate 125 g/ha",0
same,"Plant response rating, Barnyardgrass","[14]; Preemergence, Rate 500 g/ha",100
same,"Plant response rating, Barnyardgrass","[14]; preemergence, Rate 125 g/ha",50
same,"Plant response rating, Cocklebur","[15]; Preemergence, Rate 500 g/ha",40
same,"Plant response rating, Cocklebur","[15]; preemergence, Rate 125 g/ha",0
same,"Plant response rating, Corn","corn (Zea mays) [16]; Preemergence, Rate 500 g/ha",20
same,"Plant response rating, Corn","corn (Zea mays) [16]; preemergence, Rate 125 g/ha",0
same,"Plant response rating, Crabgrass","[17]; Preemergence, Rate 500 g/ha",100
same,"Plant response rating, Crabgrass","[17]; preemergence, Rate 125 g/ha",0
same,"Plant response rating, Foxtail, Giant","[18]; Preemergence, Rate 500 g/ha",100
same,"Plant response rating, Foxtail, Giant","[18]; preemergence, Rate 125 g/ha",50
same,"Plant response rating, Lambsquarters","[19]; Preemergence, Rate 500 g/ha",100
same,"Plant response rating, Lambsquarters","[19]; preemergence, Rate 125 g/ha",100
same,"Plant response rating, Morningglory","[20]; Preemergence, Rate 500 g/ha",40
same,"Plant response rating, Morningglory","[20]; preemergence, Rate 125 g/ha",20
same,"Plant response rating, Pigweed","[21]; Preemergence, Rate 500 g/ha",100
same,"Plant response rating, Pigweed","[21]; preemergence, Rate 125 g/ha",100
same,"Plant response rating, Velvetleaf","[22]; Preemergence, Rate 500 g/ha",30
same,"Plant response rating, Velvetleaf","[22]; preemergence, Rate 125 g/ha",0
